In this test the target is T1, Adenosine receptor A1 (Cavia porcellus, UniProt P47745).
T1 sequence (P47745 whole entry): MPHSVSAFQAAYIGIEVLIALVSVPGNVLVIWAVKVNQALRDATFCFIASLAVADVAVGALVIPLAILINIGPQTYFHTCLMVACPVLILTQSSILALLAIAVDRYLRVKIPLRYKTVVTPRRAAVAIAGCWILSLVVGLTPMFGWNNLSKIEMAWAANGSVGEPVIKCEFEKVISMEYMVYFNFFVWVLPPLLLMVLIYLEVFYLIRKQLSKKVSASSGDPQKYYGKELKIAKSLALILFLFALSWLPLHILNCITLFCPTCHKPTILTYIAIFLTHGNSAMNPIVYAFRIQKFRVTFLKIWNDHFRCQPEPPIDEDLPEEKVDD
As to the kind of experiment: Tested for adenosine A1 receptor agonistic activity by determining concentration needed to prolong the stimulus-QRS interval by 50% of the maximum response.

As usually defined, the EC50 is the concentration needed to bring the measured effect to its halfway point. Higher therefore signals weaker potency. For `Nc1nc(N=NCc2cccs2)nc2c1ncn2C1O[C@H](CO)[C@@H](O)[C@H]1O` (some centres not stated), a half-maximal effect (EC50) was put at 41.7 µM. This counts as double-digit micromolar.
Next, `Nc1nc(N=NCc2ccccc2F)nc2c1ncn2C1O[C@H](CO)[C@@H](O)[C@H]1O` (some centres not stated): 41.7 µM.
As to `Nc1nc(N=NCc2ccccc2)nc2c1ncn2C1O[C@H](CO)[C@@H](O)[C@H]1O` (some centres not stated), the EC50 was 83.2 µM.
Consider `Nc1nc(N=NCc2cccc(Cl)c2)nc2c1ncn2C1O[C@H](CO)[C@@H](O)[C@H]1O` (some centres not stated), for which the EC50 was 49 µM. Against the preceding molecule, the EC50 is about 1.7-fold lower.
Next, `Nc1nc(N=NCCc2ccccc2)nc2c1ncn2C1O[C@H](CO)[C@@H](O)[C@H]1O` (some centres not stated): 83.2 µM; `Nc1nc(N=NCc2ccccc2Cl)nc2c1ncn2C1O[C@H](CO)[C@@H](O)[C@H]1O` (some centres not stated): 49 µM.
`Nc1nc(N=NCc2ccccn2)nc2c1ncn2C1O[C@H](CO)[C@@H](O)[C@H]1O` (some centres not stated) displayed an EC50 of 41.7 µM.

The record behind these values is BindingDB's records for doi:10.1021/jm00102a008 (University of South Florida, 1993).
